From US6514961B1, “Azetidinecarboxamide derivatives for the treatment of CNS disorders” (Vernalis Research Limited, priority 1998, dated 2003)

Key:
3-MPA-induced seizures = assay: Antagonism of 3-MPA-induced seizures; assay type: in vivo; settings: male T/O mice; test drug 30 ng/kg p.o. 60 min before i.v. bolus of 3-MPA; dose of 3-MPA required to evoke a seizure response
Experimental: Antagonism of 3-MPA-Induced Seizures
Several animal seizure models are available for the screening and characterisation of anticonvulsant (antiepileptic) drugs. Most models employ a chemical convulsant to induce seizures and the anticonvulsant potencies of novel compounds are measured in terms of their ability to increase the dose of convulsant required to induce a seizure response (or to prolong the latency to seizure onset following a bolus dose of the convulsant). Most chemical convulsants work by blocking the neurotransmitter function of gamma-aminobutyric acid (GABA), the predominant inhibitory neurotransmitter in the mammalian brain. This can be achieved by blocking the postsynaptic action of GABA using pentylenetetrazol or bicuculline, or via a presynaptic action using a GABA synthesis inhibitor to decrease GABA release into the synapse. In this case, the inhibitor of glutamate decarboxylase (GAD), 3-mercaptopropionic acid (3-MPA), was used as the convulsant challenge agent.
Male albino T/O strain mice (obtained from Tuck) weighing 28-40 g were used in these studies. Animals were assigned randomly to treatment groups and vehicle or test drug (at a dose of […]) were administered p.o. to groups of 12 animals 60 min before the administration of a bolus dose of 3-MPA intravenously. Immediately following 3-MPA administration, each mouse was placed individually into a cage for observation. The seizure response of each animal was scored quantally as present or absent (response or non-response) during the 5 min period immediately following 3-MPA administration. A seizure response was defined as the onset of the initial clonic phase of the seizure (abrupt loss of righting reflex accompanied by vocalisation). The seizure threshold (in terms of mg/kg i.v. of 3-MPA required to evoke a seizure response) was determined in each treatment group by a sequential up/down method followed by modified probit analysis of the quantal data A range of doses of 3-MPA was prepared (12.5-200.0 mg/kg i.v.) increasing by a constant geometric factor […], which was found in pilot studies to generate suitable data for analysis by this method.
In these studies, 3-MPA was obtained from Sigma
Test compounds were prepared as solutions dissolved in 45% w/v aqueous 2-hydroxypropyl-β-cyclodextrin. 3-MPA was dissolved in isotonic saline and its pH adjusted to 6 using 1M sodium hydroxide solution. Drugs were administered in a dose volume of 10 ml/kg body weight.

Solubility measurement = assay type: physicochemical
[1] = system: anxiety (elevated zero-maze); assay: Elevated zero-maze model of anxiolytic activity; assay type: in vivo, rats; settings: dose of 30 mg/Kg, orally 1 hour prior to zero-maze testing
From the text: Measurement of Anxiolytic Activity in Mice Using the Elevated Zero-maze Model
The elevated “zero-maze” is a modification of the elevated plus-maze model of anxiety which incorporates both traditional and novel ethological measures in the analysis of drug effects (Shepherd, J. K., Grewal, S. S., Fletcher, A., Bill, D. J. and Dourish, C. T., Behavioural and pharmacological characterisation of the elevated “zero-maze” as an animal model of anxiety. Psychopharmacology, 1994, 116, 56-64).
Male Sprague-Dawley rats (Charles River) weighing 300-450 gm are used. Animals are group-housed (5 per cage; cage size: 40×40×20 cm) in a temperature-controlled environment (20±2° C.), under a 12 h light-dark cycle (lights on: 08:00 hours). Food and water are made freely available. Four hours prior to testing, animals are transferred to clean cages and moved to the testing room in order to habituate to the testing environment.
The maze is comprised of a black Perspex annular platform (105 cm diameter, 10 cm width) elevated to 65 cm above ground level, divided equally into four quadrants. […]
Rats are placed on a closed quadrant and a 5 min test period is recorded on video-tape. […] Animals are scored as being in the open area when all four paws were in an open quadrant, and in the closed area only when all four paws passed over the open/closed divide. […]

Row | Compound | SC = seizure threshold after treatment with test drug (3-MPA-induced seizures) [mg/kg i.v.] | Aqueous solubility at 1 mg/ml (Solubility measurement) | other results
1 | C[C@@H](O)CNC(=O)N1CC(Oc2ccc(F)cc2)C1 [Example 5, (R)-3-(4-Fluorophenoxy)-N-(2-hydroxypropyl)azetidine-1-carboxamide] | 29.8 |  | melting point: 112 to 114 °C
2 | C=CCNC(=O)N1CC(Oc2ccc(C(F)(F)F)cc2)C1 [3-(4-(trifluoromethyl)phenoxy)-N-(2-propenyl)azetidine-1-carboxamide] |  | Not soluble | 
3 | NC(=O)N1CC(Oc2ccc(Cl)cc2)C1 [3-(4-chlorophenoxy)azetidine-1-carboxamide] |  | Not soluble | 
4 | C[C@@H](O)CNC(=O)N1CC(Oc2ccc(Cl)c(Cl)c2)C1 [Example 6, (R)-3-(3,4-Dichlorophenoxy)-N-(2-hydroxypropyl)azetidine-1-carboxamide] | 59.5 |  | 
5 | C[C@@H](O)CNC(=O)N1CC(Oc2ccc(Cl)cc2)C1 (racemic) [Example 7, (R,S)-3-(4-Chlorophenoxy)-N-(2-hydroxypropyl)azetidine-1-carboximide] |  |  | anxiolytic activity (increase in the frequency of head dips) [1]: effective
6 | C[C@@H](O)CNC(=O)N1CC(Oc2ccc(C(F)(F)F)cc2)C1 [Example 8] | 214.1 | Soluble | 
7 | CCCNC(=O)N1CC(Oc2ccc(Cl)cc2)C1 [3-(4-chlorophenoxy)-N-(propyl)azetidine-1-carboxamide] |  | Not soluble | 
8 | C[C@@H](O)CNC(=O)N1CC(Oc2ccc(Cl)cc2)C1 [Example 2, (R)-3-(4-Chlorophenoxy)-N-(2-hydroxypropyl)azetidine-1-carboxamide] | 109.1 | Soluble | 
9 | CC(C)(O)CNC(=O)N1CC(Oc2ccc(Cl)cc2)C1 [Example 4, 3-(4-Chlorophenoxy)-N-(2-hydroxy-2-methylpropyl)azetidine-1-carboxamide] | 36.9 |  | 
10 | C[C@H](O)CNC(=O)N1CC(Oc2ccc(Cl)cc2)C1 [Example 3, (S)-3-(4-Chlorophenoxy)-N-(2-hydroxypropyl)azetidine-1-carboxamide] | 59.5 |  | 
11 | C[C@@H](O)CNC(=O)N1CC(Oc2ccc(C(C)(C)C)cc2)C1 [Example 1, (R)-3-(4-tert-Butylphenoxy)-N-(2-hydroxypropyl)azetidine-1-carboxamide] | 154.3 |  | melting point: 98 to 99 °C
